Consider 1 molecule from PMC6721044, “Ratiometric BRET Measurements of ATP with a Genetically-Encoded Luminescent Sensor” (Sensors (Basel, Switzerland), 2019).

Molecules are shown by their SMILES.

The target of the assay is T1, ARSeNL (mScarlet-ε-NanoLuc); ε subunit of the ATP synthase from Bacillus subtilis (Bacillus subtilis, UniProt P37812).
T1 construct: gene atpC; isolated ε subunit (from ATeam1.03) flanked by N-terminal mScarlet and C-terminal NanoLuc as reporters
Nature of the assay: BRET ratio (mScarlet/NanoLuc) dose-response, microplate reader, Hill fit. Type of assay: binding. Conditions: read-out: KD (apparent).

T1 sequence (P37812 whole entry): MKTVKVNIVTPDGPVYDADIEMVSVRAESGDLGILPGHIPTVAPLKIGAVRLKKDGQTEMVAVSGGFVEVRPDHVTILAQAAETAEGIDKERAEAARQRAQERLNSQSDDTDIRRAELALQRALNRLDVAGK

As to `Nc1ncnc2c1ncn2[C@@H]1O[C@H](COP(=O)(O)OP(=O)(O)OP(=O)(O)O)[C@@H](O)[C@H]1O` [ATP], the Kd amounted to 1100 ± 100 µM.
